Test results: EP0554025A2, “Fluorinated cyclobutyl purines and pyrimidines” (E.R. SQUIBB & SONS, INC., priority 1992, dated 1993)
Where two headings read alike, the source gives them in different places.

Legend:
Format in all cases: cell-based
[1] = tested on: VZV (varicella zoster virus, strain ELLEN); test: VZV plaque reduction antiviral assay in WI-38 cell culture monolayers; conditions: plaque reduction after 6-7 days incubation at 37°C, read-out: ID50 (μM) for the following viruses VZV
Experimental: (§1) Assays were performed in cell culture systems to determine the concentrations of compounds that are effective in preventing several kinds of viral infections. HSV-1 (herpes simplex virus type 1, strain Schooler), HSV-2 (herpes simplex virus type 2, strain 186), VZV (varicella zoster virus, strain ELLEN), HCMV (human cytomegalovirus, strain AD 169). HSV-1, HSV-2, HCMV, and VZV antiviral assays: Virus was adsorbed to WI-38 cell culture monolayers in 6 cell culture plates (Costar, Cambridge, MA) for 1 hour prior to addition of maintenance medium containing duplicate dilutions of the test compound. Inhibition of plaque development was evaluated on fixed and stained monolayers after 4 days incubation at 37°C for HSV-1 and HSV-2 and after 6-7 days incubation at 37°C for HCMV and VZV. ID50 values were determined from the drug concentration which conferred at least a 50% plaque reduction compared to virus controls.

[2] = tested on: HSV-1 (herpes simplex virus type 1, strain Schooler); test: HSV-1 plaque reduction antiviral assay in WI-38 cell culture monolayers; conditions: WI-38 cell monolayers, plaque reduction after 4 days incubation at 37°C, read-out: ID50 (μM) for the following viruses HSV-1
Experimental: as §1

[3] = tested on: HSV-2 (herpes simplex virus type 2, strain 186); test: HSV-2 plaque reduction antiviral assay in WI-38 cell culture monolayers; conditions: WI-38 cell monolayers, plaque reduction after 4 days incubation at 37°C, read-out: ID50 (μM) for the following viruses HSV-2
Experimental: as §1

[4] = tested on: HCMV (human cytomegalovirus, strain AD 169); test: HCMV plaque reduction antiviral assay in WI-38 cell culture monolayers; conditions: plaque reduction after 6-7 days incubation at 37°C, read-out: ID50 (μM) for the following viruses HCMV
Experimental: as §1

In the case of `Nc1nc2c(ncn2C2CC(F)(CO)C2CO)c(=O)[nH]1` (stereo not drawn) [Product of Example 1, (1α,2β,3β)-2-Amino-9-[3-fluoro-2,3-bis(hydroxymethyl)cyclobutyl]-1,9-dihydro-6H-purin-6-one], the IC50 ([1]; Human alphaherpesvirus 3, WI-38 cell monolayers) is reported as 1.1 µM, the IC50 ([2]; Human alphaherpesvirus 1, 96 h) is reported as 0.35 to 0.7 µM and the IC50 ([3]; Human alphaherpesvirus 2, 96 h) is reported as 0.35 to 0.7 µM. The IC50 ([4]; Human betaherpesvirus 5, WI-38 cell monolayers) was 7 to 18 µM.
`Nc1nc2c(ncn2[C@H]2C[C@@](F)(CO)[C@@H]2O)c(=O)[nH]1` [Product of Example 2, (1 α,2β,3β)-2-Amino-9-[3-fluoro-2-hydroxy-3-(hydroxymethyl)cyclobutyl]-1,9-dihydro-6H-purin-6-one] showed an IC50 ([1]; WI-38 cell monolayers) of 7 to 19 µM, an IC50 [2] of 37 to 93 µM and an IC50 [3] of 37 to 93 µM. The IC50 ([4]; WI-38 cell monolayers) was 37 µM.
